The subject of one assay is E. coli ATCC 25922. Description: Broth microdilution MIC, E. coli ATCC 25922. The assay is classed as cell-based. The settings on record: Escherichia coli, ATCC25922; E. coli ATCC 25922, broth microdilution; read-out: MIC E. coli 25922. The method in brief:
(§1)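 Broth microdilution MICs followed CLSI methods in cation-supplemented Mueller-Hinton broth, with 2-fold serial compound dilutions. Log-phase cultures grown 3–5 h were added to a starting inoculum of 5×10^5 CFU/mL and incubated 16–20 h at 37 °C. The MIC was read visually as the lowest concentration with no growth.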
(In general: Broth dilution looks for growth in wells or tubes with falling amounts of substance.)

The next assay deals with N. gonorrhoeae FA1090. Description: Liquid broth MIC, N. gonorrhoeae FA1090. The settings on record: Neisseria gonorrhoeae; N. gonorrhoeae FA1090, liquid broth; read-out: Minimum Inhibitory Concentration, N. gonorrhoeae FA1090. Type of assay: cell-based. A digest of the protocol:
(§2)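 Broth microdilution in wild-type strains: colonies from GC agar with 1% Kellogg's supplement suspended in GC broth, inoculated at 5×10^5 CFU/mL into 2-fold compound dilutions. Plates incubated 40-42 hours at 36° C., 5% CO2; MIC read visually as lowest concentration with no growth.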

The next assay relates to K. pneumoniae 848844. The experiment in a line: microbe, parasite or virus in culture. The assay is classed as cell-based, Klebsiella pneumoniae. The method in brief:
as §1

For a further assay, the target named is E. coli PBP3 (Escherichia coli (strain K12), UniProt P0AD68). Description: E. coli PBP3 Bocillin-FL fluorescence polarization competition binding assay. The method in brief: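 Purified E. coli PBP (1.5 μM final) competed with inhibitor (0-1000 μM) for Bocillin-FL (0.1 μM final) in 50 mM Hepes pH 8.0, 300 mM NaCl, 5% glycerol. Fluorescence polarization (ex 490/em 520 nm) was read continuously for 60 min after Bocillin-FL addition. EC50 was the concentration that reduced Bocillin-FL binding by 50%.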
E. coli PBP3, sequence (P0AD68 whole entry): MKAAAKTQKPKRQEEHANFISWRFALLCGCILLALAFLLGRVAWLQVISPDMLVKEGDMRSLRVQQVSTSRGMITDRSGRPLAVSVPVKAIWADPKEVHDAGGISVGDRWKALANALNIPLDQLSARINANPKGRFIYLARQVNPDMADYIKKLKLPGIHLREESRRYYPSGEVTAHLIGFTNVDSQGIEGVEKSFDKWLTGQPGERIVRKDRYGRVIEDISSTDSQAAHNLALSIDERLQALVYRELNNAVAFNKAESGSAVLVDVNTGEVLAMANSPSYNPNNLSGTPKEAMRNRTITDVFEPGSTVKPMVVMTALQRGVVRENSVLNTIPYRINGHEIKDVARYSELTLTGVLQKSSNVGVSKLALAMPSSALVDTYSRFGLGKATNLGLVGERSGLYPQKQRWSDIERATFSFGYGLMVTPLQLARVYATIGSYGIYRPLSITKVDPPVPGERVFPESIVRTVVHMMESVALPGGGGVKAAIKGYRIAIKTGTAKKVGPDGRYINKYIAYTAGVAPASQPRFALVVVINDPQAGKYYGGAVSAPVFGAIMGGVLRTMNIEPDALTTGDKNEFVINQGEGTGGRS
A general note: In fluorescence polarisation assays a small probe gives low polarisation when free and higher when bound to something large.

Another assay concerns N. gonorrhoeae WHO F. Description: Liquid broth MIC, N. gonorrhoeae WHO F. Type of assay: cell-based. The settings on record: Neisseria gonorrhoeae; N. gonorrhoeae WHO F, liquid broth; read-out: Minimum Inhibitory Concentration, N. gonorrhoeae WHO F. A digest of the protocol: as §2
The subject of a further assay is N. gonorrhoeae FA19. The experiment in a line: Liquid broth MIC, N. gonorrhoeae FA19. Type of assay: cell-based. As to conditions: Neisseria gonorrhoeae; N. gonorrhoeae FA19, liquid broth; read-out: Minimum Inhibitory Concentration, N. gonorrhoeae FA19. The method in brief:
as §2

Where [1] appears, read: Klebsiella pneumoniae, K. pneumoniae 848844 producing SHV-11 and KPC-2, read-out: MIC K. pneumoniae 848844.
The mark [2] stands for this setting: fluorescence polarization competition binding with Bocillin-FL, read-out: E. coli K12 PBP3 Potency.

Values after ≈ are worked out from the molar mass of the structure shown. Where two headings read alike, the source gives them in different places.

For `CCNC(=O)NCCN1CCN(C(=O)NC(C(=O)N[C@H]2Cc3cccc(C(=O)O)c3OB2O)c2ccc(O)c(O)c2Cl)C(=O)C1=O` (stereo partly drawn) [Example 235, (3R)-3-(2-(2-chloro-3,4-dihydroxyphenyl)-2-(4-(2-(3-ethylureido)ethyl)-2,3-dioxopiperazine-1-carboxamido)acetamido)-2-hydroxy-3,4-dihydro-2H-benzo[e][1,2]oxaborinine-8-carboxylic acid], the MIC is 32 to 64 µg/mL with E. coli ATCC 25922; 1 to 2 µg/mL (≈ 1.51 to 3.03 µM) in the assay with N. gonorrhoeae FA1090; 2 to 4 µg/mL in the assay with K. pneumoniae 848844 (setting [1]); 1 to 2 µg/mL (≈ 1.51 to 3.03 µM) in the assay on N. gonorrhoeae WHO F; above 64 µg/mL with N. gonorrhoeae FA19. Further, the EC50 at E. coli PBP3 (setting [2]) was below 30 µM.

Consider `NCCCN1CCN(C(=O)N[C@@H](C(=O)N[C@H]2Cc3ccc(F)c(C(=O)O)c3OB2O)c2ccc(O)c(O)c2Cl)C(=O)C1=O` [Example 236, (R)-3-((R)-2-(4-(3-aminopropyl)-2,3-dioxopiperazine-1-carboxamido)-2-(2-chloro-3,4-dihydroxyphenyl)acetamido)-7-fluoro-2-hydroxy-3,4-dihydro-2H-benzo[e][1,2]oxaborinine-8-carboxylic acid], for which the MIC with E. coli ATCC 25922 lay in the range of 0.5 to 1 µg/mL; with N. gonorrhoeae FA1090, 1 to 2 µg/mL (≈ 1.61 to 3.22 µM); in the assay with K. pneumoniae 848844 (setting [1]), 0.5 to 1 µg/mL; in the assay on N. gonorrhoeae WHO F it was 1 to 2 µg/mL (≈ 1.61 to 3.22 µM); with N. gonorrhoeae FA19, 4 to 8 µg/mL (≈ 6.43 to 12.9 µM). This compound came in with an EC50 at E. coli PBP3 of 30 to 500 µM.

For the compound `CCN1C[C@H](CO)N(C(=O)NC(C(=O)N[C@H]2Cc3ccc(F)c(C(=O)O)c3OB2O)c2ccc(O)c(O)c2Cl)C(=O)C1=O` (stereo partly drawn) [Example 237, (3R)-3-(2-(2-chloro-3,4-dihydroxyphenyl)-2-((R)-4-ethyl-6-(hydroxymethyl)-2,3-dioxopiperazine-1-carboxamido)acetamido)-7-fluoro-2-hydroxy-3,4-dihydro-2H-benzo[e][1,2]oxaborinine-8-carboxylic acid], the MIC with E. coli ATCC 25922 fell in the range of 2 to 4 µg/mL; in the assay with N. gonorrhoeae FA1090 it was 1 to 2 µg/mL (≈ 1.61 to 3.21 µM); with K. pneumoniae 848844 (setting [1]) it was 2 to 4 µg/mL; in the assay on N. gonorrhoeae WHO F, 0.25 to 0.5 µg/mL (≈ 0.401 to 0.803 µM); with N. gonorrhoeae FA19, 4 to 8 µg/mL (≈ 6.42 to 12.8 µM). Moreover, the EC50 at E. coli PBP3 (setting [2]) is below 30 µM.

Regarding `CCN1C[C@H](CCN)N(C(=O)NC(C(=O)N[C@H]2Cc3ccc(F)c(C(=O)O)c3OB2O)c2ccc(O)c(O)c2Cl)C(=O)C1=O` (stereo partly drawn) [Example 238, (3R)-3-(2-((S)-6-(2-aminoethyl)-4-ethyl-2,3-dioxopiperazine-1-carboxamido)-2-(2-chloro-3,4-dihydroxyphenyl)acetamido)-7-fluoro-2-hydroxy-3,4-dihydro-2H-benzo[e][1,2]oxaborinine-8-carboxylic acid], the MIC in the assay with E. coli ATCC 25922 is 32 to 64 µg/mL; with N. gonorrhoeae FA1090 it was 4 to 8 µg/mL (≈ 6.29 to 12.6 µM); in the assay with K. pneumoniae 848844 (Klebsiella pneumoniae, 848844, read-out: MIC K. pneumoniae 848844), 8 to 16 µg/mL; in the assay on N. gonorrhoeae WHO F, 4 to 8 µg/mL (≈ 6.29 to 12.6 µM); with N. gonorrhoeae FA19, above 64 µg/mL. On E. coli PBP3, this compound came in with an EC50 of 30 to 500 µM.

Consider `CNCCN1CCN(C(=O)NC(C(=O)N[C@H]2Cc3cccc(C(=O)O)c3OB2O)c2ccc(O)c(O)c2Cl)C(=O)C1=O` (stereo partly drawn) [Example 239, (3R)-3-(2-(2-chloro-3,4-dihydroxyphenyl)-2-(4-(2-(methylamino)ethyl)-2,3-dioxopiperazine-1-carboxamido)acetamido)-2-hydroxy-3,4-dihydro-2H-benzo[e][1,2]oxaborinine-8-carboxylic acid], for which the MIC is 32 to 64 µg/mL in the assay with E. coli ATCC 25922; 4 to 8 µg/mL (≈ 6.62 to 13.2 µM) in the assay with N. gonorrhoeae FA1090; 2 to 4 µg/mL in the assay on K. pneumoniae 848844 (setting [1]); 4 to 8 µg/mL (≈ 6.62 to 13.2 µM) in the assay with N. gonorrhoeae WHO F; above 64 µg/mL with N. gonorrhoeae FA19. The same compound yielded an EC50 at E. coli PBP3 of 30 to 500 µM.

For the origin of these results see patent US12173018B2, “Penicillin-binding protein inhibitors” (priority 2018, dated 2024).
